These results are taken from patent US20250313574A1, “SIALIC ACID DERIVATIVES AND METHODS OF USING SAME” (EISAI R&D MANAGEMENT CO., LTD., priority 2022, published 2025).

Structures are written as SMILES.

Chain of Recombinant human CD33 protein (P20138 18-259): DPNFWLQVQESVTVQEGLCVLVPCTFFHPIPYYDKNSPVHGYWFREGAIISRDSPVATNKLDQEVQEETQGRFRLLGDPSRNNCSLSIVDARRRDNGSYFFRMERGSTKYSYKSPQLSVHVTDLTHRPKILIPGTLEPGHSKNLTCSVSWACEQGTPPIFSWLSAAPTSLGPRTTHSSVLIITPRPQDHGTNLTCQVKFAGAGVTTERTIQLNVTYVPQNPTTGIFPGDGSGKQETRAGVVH

The assay has as its target Recombinant human CD33 protein (Homo sapiens (Human), UniProt P20138). The assay is described as follows: CD33 competitive binding assay for HTS drug screen (fluorescent multivalent sialic acid probe). The protocol: This is a competitive binding assay that uses recombinant CD33 immobilized to a plate and a fluorescently-labeled multivalent sialic acid analog as a probe. Binding of drug to the site on CD33 to which sialic acid binds is detected by reduced binding of the fluorescent probe. Recombinant human CD33 protein (for example Acro Biosystems cat #CD3-H5257) was added at a concentration of 10 μg/ml in 20 mM acetate buffer (pH5.5) to a black plastic plate (Corning 4510) and allowed to incubate overnight at 4° C. The next day, the wells were washed 3 times with PBS containing 0.02% Tween-20. This was followed by a 30-minute incubation with PBS containing 0.2% Tween-20 and 0.5% BSA to block non-specific binding to the well. This buffer is removed and replaced with 10 μl of the same buffer, which is also used as the assay buffer. The fluorescent multivalent sialic acid probe was prepared as a 4× concentration as follows. A biotinylated sialic acid analog A-375 was mixed with biotin-4-Fluorescein isothiocyanate (biotin-4-FITC) at a 3:1 molar ratio with final concentrations (4× stock) of 60 μM A-375 and 20 μM biotin-4-FITC. After these were mixed, 20 μM of neutravidin was added, which should form complexes consisting of neutravidin, fluorescein and sialic acid with an average complex consisting of 1 neutravidin, 1 FITC and 3 sialic acid analogs. The multimerization of the sialic acid analog is critical to the assay and improves the affinity of the sialic acid analog several orders of magnitude. A test compound, for example A-001, is added at 5 μl to the 10 μl assay buffer already in the well. After a brief incubation, 5 μl of the 4× stock solution of sialic acid complexes was added. The final concentration of the complexes was therefore 5 μM neutravidin, 15 μM A-375 and 5 μM FITC. The plate was incubated at room temperature for 30 mins and then washed with PBS containing 0.2% Tween-20. Binding of the sialic acid complex is very stable, with an off-rate of several days. Bound complex was then detected using a standard plate reader to quantify FITC fluorescence.
As for `CC(=O)N[C@H]1[C@H]([C@H](O)[C@H](O)CNC(=O)c2cc(C)c(O)c(C)c2)O[C@@](CCN2CCOC[C@@]23CCN(C(=O)CC(C)c2ccccc2)C3)(C(=O)O)C[C@@H]1O` (stereo partly drawn) [A-068], the EC50 came to 101 nM.
With `Cc1cc(C(=O)NC[C@@H](O)C[C@H]2CCC[C@](CCN3CCOC[C@@]34CCN(C(=O)OC(C)(C)C)C4)(C(=O)O)O2)cc(C)c1O` [A-208], the EC50 was more than 20000 nM.
As for `CC(=O)N[C@H]1[C@H]([C@H](O)[C@H](O)CNC(=O)c2cc(C)c(O)c(C)c2)O[C@@](CCN2CCOC[C@@]23CCN(C(=O)CC2CCOCC2)C3)(C(=O)O)C[C@@H]1O` [A-073], the EC50 was determined as 206 nM.
In the case of `CC(=O)N[C@H]1[C@H]([C@H](O)[C@H](O)CNC(=O)c2cc(C)c(O)c(C)c2)O[C@@](CCN2CCC[C@]23CCN(C(=O)OC(C)(C)C)C3)(C(=O)O)C[C@@H]1O` [A-020], the half-maximal effective concentration (EC50) came to 472 nM.
Regarding `C=C(OC(C)(C)C)N1CCC2(CC1)CCN2CC[C@]1(C(=O)O)C[C@H](O)[C@@H](NC(C)=O)[C@H]([C@H](O)[C@H](O)CNC(=O)c2cc(C)c(O)c(C)c2)O1` [A-023], the EC50 stood at 176 nM.
As for `CC(=O)N[C@H]1[C@H]([C@H](O)[C@H](O)CNC(=O)c2cc(C)c(O)c(C)c2)O[C@@](CCN2CCOC[C@@]23CCN(C(=O)C(C)C2CCCCC2)C3)(C(=O)O)C[C@@H]1O` (stereo partly drawn) [A-076], the figure is 226 nM; as for `CC(=O)N[C@H]1[C@H]([C@H](O)[C@H](O)CNC(=O)c2cc(C)c(O)c(C)c2)O[C@@](C/C=C/C2CCN(c3cc(N(C)C)ccn3)C2)(C(=O)O)C[C@@H]1O` (stereo partly drawn) [A-199], 9860 nM.
Consider `CC(=O)N[C@H]1[C@H]([C@H](O)[C@H](O)CNC(=O)c2cc(C)c(O)c(C)c2)O[C@@](CCN2CCC[C@@]23CCN(C(=O)OC(C)(C)C)C3)(C(=O)O)C[C@@H]1O` [A-019], for which the EC50 came out at 28 nM.
For the molecule `CC(=O)N[C@H]1[C@H]([C@H](O)[C@H](O)CNC(=O)c2cc(C)c3[nH]ncc3c2)O[C@@](CCN2CCOC[C@@]23CCN(C(=O)OC(C)(C)C)C3)(C(=O)O)C[C@@H]1O` [A-130], the EC50 amounted to 9 nM.
As for `CC(=O)N[C@H]1[C@H]([C@H](O)[C@H](O)CNC(=O)c2cc(C)c(O)c(C)c2)O[C@@](C/C=C/C2(O)CCN(C(=O)OC(C)(C)C)C2)(C(=O)O)C[C@@H]1O` (stereo partly drawn) [A-197], the figure is 181 nM; as for `CC(=O)N[C@H]1[C@H]([C@H](O)[C@H](O)CNC(=O)c2cc(C)c(O)c(C)c2)O[C@@](CCN2CCOC[C@@]23CCN(C(=O)C2CCOCC2)C3)(C(=O)O)C[C@@H]1O` [A-091], 452 nM.
As for `CC(=O)N[C@H]1[C@H]([C@H](O)[C@H](O)CNC(=O)c2cc(C)c(O)c(C)c2)O[C@@](CCN2CCN(C)C[C@@]23CCN(C(=O)NC(C)(C)C)C3)(C(=O)O)C[C@@H]1O` [A-105], the figure is 8 nM.
Next, `CC(=O)N[C@H]1[C@H]([C@H](O)[C@H](O)CNC(=O)c2cc(C)c(O)c(C)c2)O[C@@](CCN2CCOC[C@@]23CCN(C(=O)c2ccccn2)C3)(C(=O)O)C[C@@H]1O` [A-087]: 5260 nM; `CC(=O)N[C@H]1[C@H]([C@H](O)[C@H](O)CNC(=O)c2cc(C)c(O)c(C)c2)O[C@@](CCN2CCOC[C@@]23CCN(C(=O)COCC(C)C)C3)(C(=O)O)C[C@@H]1O` [A-083]: 1000 nM; `CC(=O)N[C@H]1[C@H]([C@H](O)[C@H](O)CNC(=O)c2cc(C)c(O)c(C)c2)O[C@@](CCN2CCOC[C@@]23CCN(C(=O)N[C@H](C)c2ccc(Br)cc2)C3)(C(=O)O)C[C@@H]1O` [A-056]: 153 nM.
With `CC(=O)N[C@H]1[C@H]([C@H](O)[C@H](O)CNC(=O)c2cc(C)c(O)c(C)c2)O[C@@](C[C@@H]2COC[C@@]3(CCN(C(=O)OC(C)(C)C)C3)N2)(C(=O)O)C[C@@H]1O` [A-226, (2R,4S,5R,6R)-5-acetamido-2-(((5S,7R)-2-(tert-butoxycarbonyl)-9-oxa-2,6-diazaspiro[4.5]decan-7-yl)methyl)-6-((1R,2R)-1,2-dihydroxy-3-(4-hydroxy-3,5-dimethylbenzamido)propyl)-4-hydroxytetrahydro-2H-pyran-2-carboxylic acid], the EC50 came to 3870 nM.
Consider `CC(=O)N[C@H]1[C@H]([C@H](O)[C@H](O)CNC(=O)c2cc(C)c(O)c(C)c2)O[C@@](CCN2CCOCC23CN(C(=O)OC(C)(C)C)C3)(C(=O)O)C[C@@H]1O` [A-008], for which the concentration giving a half-maximal response (EC50) came to 538 nM.
For the molecule `CC(=O)N[C@H]1[C@H]([C@H](O)[C@H](O)CNC(=O)c2cc(C)c(O)c(C)c2)O[C@@](CCN2CCNC[C@@]23CCN(C(=O)NC(C)(C)C)C3)(C(=O)O)C[C@@H]1O` [A-108], the EC50 stood at 26 nM.
As for `Cc1cc(C(=O)NC[C@H](O)C[C@H]2CC[C@@H](C)[C@](CCN3CCOC[C@@]34CCN(C(=O)OC(C)(C)C)C4)(C(=O)O)O2)cc2cc[nH]c12` [A-219], the figure is more than 20000 nM.
As for `Cc1cc(C(=O)NC[C@@H](O)C[C@H]2CC[C@H](C)[C@](CCN3CCOC[C@@]34CCN(C(=O)OC(C)(C)C)C4)(C(=O)O)O2)cc2cc[nH]c12` [A-216], the EC50 was 12200 nM.
As for `CC(=O)N[C@H]1[C@H]([C@H](O)[C@H](O)CNC(=O)c2cc(C)c(O)c(C)c2)O[C@@](CCN2CCOC[C@@]23CCN(C(=O)NC(C)(C)C(C)C)C3)(C(=O)O)C[C@@H]1O` [A-050], the EC50 came out at 20 nM.
Turning to `CC(=O)N[C@H]1[C@H]([C@H](O)[C@H](O)CNC(=O)c2cc(C)c(O)c(C)c2)O[C@@](CCN2CCNC[C@]23CCN(C(=O)NC(C)(C)C)C3)(C(=O)O)C[C@@H]1O` [A-107], the EC50 came out at 379 nM.
Next, `Cc1cc2cc(C)c1OCCCC[C@H](NC(=O)C1CCCOC1)c1cccc(c1)/C=C/C[C@]1(C(=O)O)C[C@H](O)[C@@H](NC(=O)Cn3cc(C4CCCCC4)nn3)[C@@H](O1)[C@H](O)[C@H](O)CNC2=O` (stereo partly drawn) [A-350]: 13300 nM; `CC(=O)N[C@H]1[C@H]([C@H](O)[C@H](O)CNC(=O)c2cc(C)c(O)c(C)c2)O[C@@](CCN2CCOC[C@@]23CCN(C(=O)c2ccc4[nH]c(C(C)O)nc4c2)C3)(C(=O)O)C[C@@H]1O` (stereo partly drawn) [A-095]: 1690 nM.
On to `C=C(C)c1ccc(C(C)(C)NC(=O)N2CC[C@@]3(COCCN3CC[C@]3(C(=O)O)C[C@H](O)[C@@H](NC(C)=O)[C@H]([C@H](O)[C@H](O)CNC(=O)c4cc(C)c(O)c(C)c4)O3)C2)cc1` [A-046], for which the EC50 stood at 63 nM.
For `CC(=O)N[C@H]1[C@H]([C@H](O)[C@H](O)CNC(=O)c2cc(C)c(O)c(C)c2)O[C@@](CCN2CCOC[C@@]23CCN(C(=O)C2(C)CCCO2)C3)(C(=O)O)C[C@@H]1O` (stereo partly drawn) [A-077], the EC50 amounted to 283 nM.
As for `Cc1cc(C(=O)NCC(O)C[C@@H]2O[C@@](CCN3CCOC[C@@]34CCN(C(=O)OC(C)(C)C)C4)(C(=O)O)CCC2C)cc(C)c1O` (single isomer, unassigned) [A-215], the figure is 60400 nM.
Take `CC(=O)N[C@H]1[C@H]([C@H](O)[C@H](O)CNC(=O)c2cc(C)c(O)c(C)c2)O[C@@](CCN2CCC23CCN(C(=O)OC(C)(C)C)C3)(C(=O)O)C[C@@H]1O` (stereo partly drawn) [A-018]: the EC50 amounted to 162 nM.
For `CC(=O)N[C@H]1[C@H]([C@H](O)[C@H](O)CNC(=O)c2cc(C)c(O)c(C)c2)O[C@@](CCN2CCOC[C@@]23CCN(c2cc(C(F)(F)F)ccn2)C3)(C(=O)O)C[C@@H]1O` [A-039], the EC50 amounted to 95 nM.
On to `COC[C@@]1(NCC[C@]2(C(=O)O)C[C@H](O)[C@@H](NC(C)=O)[C@H]([C@H](O)[C@H](O)CNC(=O)c3cc(C)c(O)c(C)c3)O2)CCN(C(=O)OC(C)(C)C)C1` [A-030], for which the EC50 was 49 nM.
On to `CC(=O)N[C@H]1[C@H]([C@H](O)[C@H](O)CNC(=O)c2cc(C)c(O)c(C)c2)O[C@@](CCN2CCOC[C@@]23CCN(C(=O)c2ccco2)C3)(C(=O)O)C[C@@H]1O` [A-093], for which the EC50 stood at 892 nM.
As for `C#C[C@H](C)C(=O)C(=O)Nc1cccc([C@@H]2OC(C)(C)OC2C[C@]2(C(=O)O)C[C@H](O)[C@@H](NC(C)=O)[C@H]([C@H](O)[C@H](O)CNC(=O)c3cc(C)c(O)c(C)c3)O2)c1` (stereo partly drawn) [A-306], the figure is 5620 nM; as for `CC(=O)N[C@H]1[C@H]([C@H](O)[C@H](O)CNC(=O)c2cc(C)c(O)c(C)c2)O[C@@](CCN2CCOC[C@@]23CCN(C(=O)C2CCC(F)(F)C2)C3)(C(=O)O)C[C@@H]1O` (stereo partly drawn) [A-074], 263 nM; as for `Cc1cc(C(=O)NC[C@@H](O)[C@@H](O)[C@@H]2O[C@@](CCN3CCOC[C@@]34CCN(C(=O)OC(C)(C)C)C4)(C(=O)O)C[C@H](O)[C@H]2N(C)C)cc(C)c1O` [A-203], more than 5000 nM.
Turning to `Cc1cc(C(=O)NCC(O)C[C@@H]2O[C@@](C/C=C/C3CCN(C(=O)OC(C)(C)C)C3)(C(=O)O)CCC2C)cc2cc[nH]c12` (single isomer, unassigned) [A-211], the EC50 came to 15200 nM.
As for `CC(=O)N[C@H]1[C@H]([C@H](O)[C@H](O)CNC(=O)c2cc(C)c(O)c(C)c2)O[C@@](CCN2CCOC[C@@]23CCN(C(=O)C(C)(C)Oc2ccccc2)C3)(C(=O)O)C[C@@H]1O` [A-081], the figure is 1950 nM.
